# Assay results: ChEMBL document CHEMBL4342450, “Antitumor Activity of Ohmyungsamycin A through the Regulation of the Skp2-p27 Axis and MCM4 in Human Colorectal Cancer Cells” (J Nat Prod, 2020)
# Activity calls are given as the source filed them. No cut-off for these calls is given here. *1 amine or outer side, *2 acyl side, *3 side chain or, on linkers, in order; H or OH if unused. Where a SMILES comes first, the peptide text is derived from it. Bridges are numbered along the chain shown (N, C = ends). [ ]: non-standard residue; d: D form. Phe(3R-OH) = O=C([C@@H](N[*:1])[C@H](O[*:3])c1ccccc1)[*:2]; NMeTrp(4-OMe) = CN[C@@H](Cc1c[nH]c2cccc(OC)c12)C(=O)O; NMeT = CN[C@H](C(=O)O)[C@@H](C)O; NMeL = CN[C@@H](CC(C)C)C(=O)O; NMeV = CN[C@H](C(=O)O)C(C)C
# Tests used:
# HCT-116 [1] = assay: Induction of cell cycle arrest in human HCT116 cells assessed as accumulation at G2/M phase at 5 uM incubated for 24 hrs by propidium iodide staining based flow cytometry (reference value: 15.7%); assay type: functional
# HCT-116 [2] = assay: Induction of cell cycle arrest in human HCT116 cells assessed as accumulation at G0/G1 phase at 5 uM incubated for 18 hrs by propidium iodide staining based flow cytometry (reference value: 43.3%); assay type: functional
# SK-HEP1 = assay: Antiproliferative activity against human SKHEP1 cells after 72 hrs by sulforhodamine B assay; assay type: functional, cell-based; settings: SK-HEP1, 72 h
# HCT-116 [3] = assay: Modulation of Skp2-p27 Axis in human HCT116 cells assessed as upregulation of p21 expression after 24 hrs by Western blot analysis; assay type: functional, cell-based
# HCT-116 [4] = assay: Induction of apoptosis in human HCT116 cells assessed as reduction in Bid level at 5 to 20 uM after 24 hrs by Western blot analysis; assay type: functional, cell-based
# HCT-116 [5] = assay: Induction of cell cycle arrest in human HCT116 cells assessed as accumulation at G0/G1 phase at 20 uM incubated for 18 hrs by propidium iodide staining based flow cytometry (reference value: 43.3%); assay type: functional
# A549 = assay: Antiproliferative activity against human A549 cells after 72 hrs by sulforhodamine B assay; assay type: functional, cell-based; settings: A549, 72 h
# HCT-116 [6] = assay: Downregulation of MCM10 gene expression in human HCT116 cells assessed as fold change at 15 uM incubated for 24 hrs by cDNA microarray analysis relative to control; assay type: functional
# HCT-116 [7] = assay: Induction of cell cycle arrest in human HCT116 cells assessed as accumulation at sub-G1 phase at 10 uM incubated for 24 hrs by propidium iodide staining based flow cytometry (reference value: 4.8%); assay type: functional
# HCT-116 [8] = assay: Induction of cell cycle arrest in human HCT116 cells assessed as accumulation at G2/M phase at 20 uM incubated for 24 hrs by propidium iodide staining based flow cytometry (reference value: 15.7%); assay type: functional
# HCT-116 [9] = assay: Effect on Skp1 expression in human HCT116 cells at 5 to 20 uM after 24 hrs by Western blot analysis; assay type: functional, cell-based
# HCT-116 [10] = assay: Downregulation of TMSB15A gene expression in human HCT116 cells assessed as fold change at 15 uM incubated for 24 hrs by cDNA microarray analysis relative to control; assay type: functional
# HCT-116 [11] = assay: Downregulation of MCM5 gene expression in human HCT116 cells assessed as fold change at 15 uM incubated for 24 hrs by cDNA microarray analysis relative to control; assay type: functional
# HCT-116 [12] = assay: Downregulation of MCM4 gene expression in human HCT116 cells assessed as fold change at 15 uM incubated for 24 hrs by cDNA microarray analysis relative to control; assay type: functional
# HCT-116 [13] = assay: Antiproliferative activity against human HCT116 cells after 72 hrs by sulforhodamine B assay; assay type: functional, cell-based
# HCT-116 [14] = assay: Downregulation of BMP4 gene expression in human HCT116 cells assessed as fold change at 15 uM incubated for 24 hrs by cDNA microarray analysis relative to control; assay type: functional
# HCT-116 [15] = assay: Induction of cell cycle arrest in human HCT116 cells assessed as accumulation at G0/G1 phase at 20 uM incubated for 24 hrs by propidium iodide staining based flow cytometry (reference value: 54.7%); assay type: functional
# HCT-116 [16] = assay: Downregulation of SCARA3 gene expression in human HCT116 cells assessed as fold change at 15 uM incubated for 24 hrs by cDNA microarray analysis relative to control; assay type: functional
# HCT-116 [17] = assay: Decrease in cell cycle associated protein expression in human HCT116 cells assessed as reduction in cyclin D1 expression at 5 to 20 uM after 24 hrs by Western blot analysis; assay type: functional, cell-based
# HCT-116 [18] = assay: Downregulation of MCM4 protein expression in human HCT116 cells at 5 to 20 uM after 24 hrs by Western blot analysis; assay type: functional, cell-based
# HCT-116 [19] = assay: Induction of cell cycle arrest in human HCT116 cells assessed as accumulation at S phase at 5 uM incubated for 24 hrs by propidium iodide staining based flow cytometry (reference value: 21.2%); assay type: functional
# HCT-116 [20] = assay: Antitumor activity against human HCT116 cells xenografted in BALB/c nude mouse assessed as tumor weight at 10 mg/kg, ip administered thrice a week for 3.5 weeks measured on last day (reference value: 100%); assay type: functional
# HCT-116 [21] = assay: Downregulation of SKP2 gene expression in human HCT116 cells assessed as fold change at 15 uM incubated for 24 hrs by cDNA microarray analysis relative to control; assay type: functional
# HCT-116 [22] = assay: Downregulation of HIST1H2BM gene expression in human HCT116 cells assessed as fold change at 15 uM incubated for 24 hrs by cDNA microarray analysis relative to control; assay type: functional
# HCT-116 [23] = assay: Induction of cell cycle arrest in human HCT116 cells assessed as accumulation at G0/G1 phase at 10 uM incubated for 18 hrs by propidium iodide staining based flow cytometry (reference value: 43.3%); assay type: functional
# Mus musculus = assay: In vivo modulation of Skp2-p27 axis in tumor of BALB/c nude mouse xenografted with human HCT116 cells assessed as upregulation of p27 level at 5 to 10 m/kg, ip administered thrice a week for 3.5 weeks by Western blot analysis; assay type: functional, organism-based
# HCT-116 [24] = assay: Induction of morphological changes in human HCT116 cells assessed as appearance of shrunken cells at 4 to 20 uM by inverted phase-contrast microscopic method; assay type: functional, cell-based
# HCT-116 [25] = assay: Induction of cell cycle arrest in human HCT116 cells assessed as accumulation at S phase at 10 uM incubated for 18 hrs by propidium iodide staining based flow cytometry (reference value: 26.8%); assay type: functional
# HCT-116 [26] = assay: Induction of morphological changes in human HCT116 cells assessed as appearance of pin-point shape cells at 4 to 20 uM by inverted phase-contrast microscopic method; assay type: functional, cell-based
# HCT-116 [27] = assay: Downregulation of HSPA1B gene expression in human HCT116 cells assessed as fold change at 15 uM incubated for 24 hrs by cDNA microarray analysis relative to control; assay type: functional
# HCT-116 [28] = assay: Induction of cell cycle arrest in human HCT116 cells assessed as accumulation at G0/G1 phase at 5 uM incubated for 24 hrs by propidium iodide staining based flow cytometry (reference value: 54.7%); assay type: functional
# HCT-116 [29] = assay: Induction of cell cycle arrest in human HCT116 cells assessed as accumulation at sub-G1 phase at 5 uM incubated for 18 hrs by propidium iodide staining based flow cytometry (reference value: 0.9%); assay type: functional
# HCT-116 [30] = assay: Induction of cell cycle arrest in human HCT116 cells assessed as accumulation at S phase at 20 uM incubated for 18 hrs by propidium iodide staining based flow cytometry (reference value: 26.8%); assay type: functional
# HCT-116 [31] = assay: Downregulation of MCM4 mRNA expression in human HCT116 cells after 12 hrs by RT-PCR method; assay type: functional, cell-based
# HCT-116 [32] = assay: Modulation of Skp2-p27 Axis in human HCT116 cells assessed as reduction in Skp2 mRNA level at 5 to 20 uM after 12 hrs by real-time PCR method; assay type: functional, cell-based
# HCT-116 [33] = assay: Induction of cell cycle arrest in human HCT116 cells assessed as accumulation at G2/M phase at 5 uM incubated for 18 hrs by propidium iodide staining based flow cytometry (reference value: 25.1%); assay type: functional
compound,measurement,setting,value
CN[C@H](C(=O)N[C@H](C(=O)N[C@@H]1C(=O)N(C)[C@@H]([C@@H](C)O)C(=O)N[C@@H](C(C)C)C(=O)N(C)[C@@H](CC(C)C)C(=O)N[C@@H](C(C)C)C(=O)N(C)[C@@H](C(C)C)C(=O)N(C)[C@@H](Cc2c[nH]c3cccc(OC)c23)C(=O)N[C@@H](C(C)C)C(=O)N[C@@H]([C@H](O)c2ccccc2)C(=O)N[C@@H](C(C)C)C(=O)O[C@@H]1C)C(C)C)C(C)C (H-[NMeV]VT[NMeT]V[NMeL]V[NMeV][NMeTrp(4-OMe)]V[Phe(3R-OH)]V; ester 3-C),Activity,HCT-116 [1],12.5%
same,Activity,HCT-116 [2],45.8%
same,IC50,SK-HEP1,8.21 µM
same,Activity,HCT-116 [3],Dose-dependent effect
same,Activity,HCT-116 [4],Active
same,Activity,HCT-116 [5],55.4%
same,IC50,A549,8.35 µM
same,fold change (FC),HCT-116 [6],4.889
same,Activity,HCT-116 [7],14.7%
same,Activity,HCT-116 [8],10.8%
same,Activity,HCT-116 [9],inactive
same,fold change (FC),HCT-116 [10],6.779
same,fold change (FC),HCT-116 [11],5.219
same,fold change (FC),HCT-116 [12],6.074
same,inhibition,HCT-116 [13],Dose-dependent effect
same,IC50,"HCT-116 [13]; HCT-116, 72 h",7.61 µM
same,fold change (FC),HCT-116 [14],4.773
same,Activity,HCT-116 [15],30.9%
same,fold change (FC),HCT-116 [16],4.372
same,inhibition,HCT-116 [17],Active
same,inhibition,HCT-116 [18],Active
same,Activity,HCT-116 [19],5.6%
same,Activity,HCT-116 [20],47.9%
same,fold change (FC),HCT-116 [21],4.898
same,fold change (FC),HCT-116 [22],7.527
same,Activity,HCT-116 [23],51.4%
same,Activity,Mus musculus,Active
same,Activity,HCT-116 [24],Active
same,Activity,HCT-116 [25],26.6%
same,Activity,HCT-116 [26],Active
same,fold change (FC),HCT-116 [27],4.531
same,Activity,HCT-116 [28],60.9%
same,Activity,HCT-116 [29],1.4%
same,Activity,HCT-116 [30],16%
same,inhibition,HCT-116 [31],Dose-dependent effect
same,inhibition,HCT-116 [32],Active
same,Activity,HCT-116 [33],22.3%
